# Measured values taken from US20150374673A1, “Combination Therapy for the Treatment of Nosocomial Pneumonia” (priority 2013, published 2015).
# Where two headings read alike, the source gives them in different places.
# Columns and labels:
# E. faecalis = assay: Initial MIC, microbroth dilution (CLSI), avibactam 4 mg/L; assay type: cell-based
# From the text: (§1) All MIC determinations including those performed in the checkerboard assay were done in cation-adjusted Mueller-Hinton broth (purchased from Becton Dickinson, Oxford UK). […]
# S. aureus [1] = assay: as above; assay type: cell-based
# From the text: as §1
# P. aeruginosa = assay: as above; assay type: cell-based; conditions: Pseudomonas aeruginosa
# Protocol: (§2) All MIC determinations including those performed in the checkerboard assay were done in cation-adjusted Mueller-Hinton broth (purchased from Becton Dickinson, Oxford UK).
# (§3) Initial MIC data were determined by microbroth dilution methods as recommended by CLSI (2012b). Checkerboards were made in accordance with the method given by Pillai et. al., ? Antimicrobial Combinations in Antibiotics, LABORATORY MEDICINE (Lorian Ed., 3rd Ed. (2003)) p. 365-440 as per standard microbroth dilution tests but with agents in combination. […] A final avibactam concentration of 4 mg/L was used throughout the study. Antibacterial agents were combined into microtitre plates using the Evolution III liquid handling system.
# K. pneumoniae = assay: as above; assay type: cell-based; conditions: Klebsiella pneumoniae
# Protocol: as §2, §3
# E. cloacae = assay: as above; assay type: cell-based; conditions: Enterobacter cloacae
# From the text: as §1
# E. coli = assay: as above; assay type: cell-based; conditions: Escherichia coli
# From the text: as §1
# S. aureus [2] = assay: MIC, CLSI broth microdilution in CAMHB with 0-10% pulmonary surfactant (avibactam fixed at 4 μg/mL in combination); assay type: cell-based, Staphylococcus aureus; conditions: for MIC: Staphylococcus aureus, read-out: MIC
# Protocol: The bacterial strains used in this testing were part of the microbiological culture collection housed at AstraZeneca R&D Boston (AstraZeneca Research Collection, designated ARC). The panel of bacterial isolates used for this testing was comprised of five CLSI QC reference strains and the remainder were either recent clinical isolates expressing β-lactamases or isolates from the primary bacterial screening panels.
# MIC values were determined using the CLSI broth microdilution methodology with slight variation. Stock compound mother plates were prepared and used to spot 2 μL aliquots of serial 2-fold drug dilutions to columns 1-11 of 96-well daughter plates using a Perkin-Elmer MiniTrak™ MultiPosition dispenser. […] An inoculum volume of 100 μL (5×10E^5 CFU/mL) in CAMHB containing 0, 1, 2.5, 5, or 10% pulmonary surfactant was added using a multichannel Finnpipette® to each well of the 96-well plate.
# The minimum inhibitory concentration (MIC) values against each organism/drug combination were determined using broth microdilution methodology according to CLSI guidelines. The recommended reference bacterial strains for each test group and reference compounds were incorporated into each test. For Gram-negatives, the reference bacterial strains were Escherichia coli ATCC 25922, E. coli ATCC 35218, Klebsiella pneumoniae ATCC 700603, and Pseudomonas aeruginosa ATCC 27853. Staphylococcus aureus ATCC 29213 was the reference bacterial strain for the Gram-positives.
# MIC values for individual isolates were read visually. The MICs for each compound or combination in pulmonary surfactant was compared to the compound or combination tested in CAMHB alone.
# [3] = isolate 23 S. aureus Basal MICs, Penicillinase+
# [4] = isolate 24 S. aureus Basal MICs, Penicillinase+
# [5] = isolate 16 P. aeruginosa Basal MICs, read-out: MIC
# [6] = isolate 19 P. aeruginosa PER, read-out: MIC
# [7] = isolate 9 K. pneumoniae Basal MICs, read-out: MIC
# [8] = isolate 1 E. cloacae Basal MICs, read-out: MIC
# [9] = isolate 4 E. coli Basal MICs, read-out: MIC
smiles,measurement,setting,value
CN[C@H](CC(C)C)C(=O)N[C@H]1C(=O)N[C@@H](CC(N)=O)C(=O)N[C@H]2C(=O)N[C@H]3C(=O)N[C@H](C(=O)N[C@H](C(=O)O)c4cc(O)cc(O)c4-c4cc3ccc4O)[C@H](O)c3ccc(c(Cl)c3)Oc3cc2cc(c3O[C@@H]2O[C@H](CO)[C@@H](O)[C@H](O)[C@H]2O[C@H]2C[C@](C)(N)[C@H](O)[C@H](C)O2)Oc2ccc(cc2Cl)[C@H]1O [Vancomycin],MIC,"E. faecalis; Enterococcus faecalis, isolate 25 E. faecalis Basal MICs",1 µg/mL
same,MIC,"E. faecalis; Enterococcus faecalis, isolate 26 E. faecalis Basal MICs",2 µg/mL
same,MIC,"E. faecalis; Enterococcus faecalis, isolate 27 E. faecalis Basal MICs",2 µg/mL
same,MIC,S. aureus [1]; Staphylococcus aureus,1 µg/mL
same,MIC,S. aureus [1]; [3],1 µg/mL
same,MIC,S. aureus [1]; [4],1 µg/mL
NC[C@H]1O[C@H](O[C@H]2[C@H](O)[C@@H](O[C@H]3O[C@H](CO)[C@@H](O)[C@H](N)[C@H]3O)[C@H](N)C[C@@H]2N)[C@H](N)C[C@@H]1O [Tobramycin],MIC,P. aeruginosa; [5],0.25 µg/mL
same,MIC,"P. aeruginosa; isolate 17 P. aeruginosa Derepressed AmpC, read-out: MIC",0.5 µg/mL
same,MIC,"P. aeruginosa; isolate 18 P. aeruginosa Derepressed AmpC, read-out: MIC",0.5 µg/mL
same,MIC,P. aeruginosa; [6],1 µg/mL
same,MIC,"P. aeruginosa; isolate 20 P. aeruginosa KPC-2, read-out: MIC",256 µg/mL
same,MIC,"P. aeruginosa; isolate 21 P. aeruginosa KPC-2, read-out: MIC",8 µg/mL
same,MIC,K. pneumoniae; [7],0.25 µg/mL
same,MIC,"K. pneumoniae; isolate 10 K. pneumoniae TEM-4, read-out: MIC",4 µg/mL
same,MIC,"K. pneumoniae; isolate 11 K. pneumoniae CTX-M-15, read-out: MIC",0.25 µg/mL
same,MIC,"K. pneumoniae; isolate 12 K. pneumoniae SHV-12, read-out: MIC",0.25 µg/mL
same,MIC,"K. pneumoniae; isolate 13 K. pneumoniae KPC-3, read-out: MIC",0.25 µg/mL
same,MIC,"K. pneumoniae; isolate 14 K. pneumoniae KPC-3, read-out: MIC",8 µg/mL
same,MIC,"K. pneumoniae; isolate 15 K. pneumoniae KPC-2, read-out: MIC",0.12 µg/mL
same,MIC,"E. faecalis; Enterococcus faecalis, isolate 25 E. faecalis Basal MICs, read-out: MIC",16 µg/mL
same,MIC,"E. faecalis; Enterococcus faecalis, isolate 26 E. faecalis Basal MICs, read-out: MIC",16 µg/mL
same,MIC,"E. faecalis; Enterococcus faecalis, isolate 27 E. faecalis Basal MICs, read-out: MIC",8 µg/mL
same,MIC,E. cloacae; [8],0.25 µg/mL
same,MIC,"E. cloacae; isolate 2 E. cloacae Derepressed AmpC, read-out: MIC",0.25 µg/mL
same,MIC,"E. cloacae; isolate 3 E. cloacae Derepressed AmpC, read-out: MIC",0.25 µg/mL
same,MIC,"S. aureus [1]; Staphylococcus aureus, isolate 22 S. aureus Basal MICs, read-out: MIC",0.25 µg/mL
same,MIC,"S. aureus [1]; Staphylococcus aureus, isolate 23 S. aureus Basal MICs, Penicillinase+, read-out: MIC",0.5 µg/mL
same,MIC,"S. aureus [1]; Staphylococcus aureus, isolate 24 S. aureus Basal MICs, Penicillinase+, read-out: MIC",0.25 µg/mL
same,MIC,E. coli; [9],0.5 µg/mL
same,MIC,"E. coli; isolate 5 E. coli CTX-M-15, read-out: MIC",64 µg/mL
same,MIC,"E. coli; isolate 6 E. coli TEM-4, read-out: MIC",1 µg/mL
same,MIC,"E. coli; isolate 7 E. coli SHV-12, read-out: MIC",1 µg/mL
same,MIC,"E. coli; isolate 8 E. coli SHV-2, read-out: MIC",64 µg/mL
CCCCCCCCCC(=O)N[C@@H](Cc1c[nH]c2ccccc12)C(=O)N[C@H](CC(N)=O)C(=O)N[C@@H](CC(=O)O)C(=O)N[C@@H]1C(=O)NCC(=O)N[C@@H](CCCN)C(=O)N[C@@H](CC(=O)O)C(=O)N[C@H](C)C(=O)N[C@@H](CC(=O)O)C(=O)NCC(=O)N[C@H](CO)C(=O)N[C@@H]([C@H](C)CC(=O)O)C(=O)N[C@@H](CC(=O)c2ccccc2N)C(=O)O[C@@H]1C [daptomycin],MIC increase in pulmonary surfactant,"S. aureus [2]; S. aureus, 1% pulmonary surfactant",32 fold
same,MIC,"S. aureus [2]; ATCC29213, S. aureus ARC12 (CLSI QC strain, ATCC 29213), surfactant 0%",0.5 µg/mL
same,MIC,"S. aureus [2]; ATCC29213, S. aureus ARC12 (CLSI QC strain, ATCC 29213), surfactant 1%",16 µg/mL
same,MIC,"S. aureus [2]; ATCC29213, S. aureus ARC12 (CLSI QC strain, ATCC 29213), surfactant 2.5%",64 µg/mL
same,MIC,"S. aureus [2]; ATCC29213, S. aureus ARC12 (CLSI QC strain, ATCC 29213), surfactant 5%",> 64 µg/mL
same,MIC,"S. aureus [2]; ATCC29213, S. aureus ARC12 (CLSI QC strain, ATCC 29213), surfactant 10%",64 µg/mL
same,MIC,"S. aureus [2]; MRSA, S. aureus ARC516 (MRSA, quinolone-resistant), surfactant 0%",0.5 µg/mL
same,MIC,"S. aureus [2]; MRSA, S. aureus ARC516 (MRSA, quinolone-resistant), surfactant 1%",16 µg/mL
same,MIC,"S. aureus [2]; MRSA, S. aureus ARC516 (MRSA, quinolone-resistant), surfactant 2.5%",64 µg/mL
same,MIC,"S. aureus [2]; MRSA, S. aureus ARC516 (MRSA, quinolone-resistant), surfactant 5%",> 64 µg/mL
same,MIC,"S. aureus [2]; MRSA, S. aureus ARC516 (MRSA, quinolone-resistant), surfactant 10%",> 64 µg/mL
CN(C)c1cc(NC(=O)CNC(C)(C)C)c(O)c2c1C[C@H]1C[C@H]3[C@H](N(C)C)C(O)=C(C(N)=O)C(=O)[C@@]3(O)C(O)=C1C2=O [Tigecycline],MIC,P. aeruginosa; [5],16 µg/mL
same,MIC,P. aeruginosa; isolate 17 P. aeruginosa Derepressed AmpC,32 µg/mL
same,MIC,P. aeruginosa; isolate 18 P. aeruginosa Derepressed AmpC,32 µg/mL
same,MIC,P. aeruginosa; [6],32 µg/mL
same,MIC,P. aeruginosa; isolate 20 P. aeruginosa KPC-2,16 µg/mL
same,MIC,P. aeruginosa; isolate 21 P. aeruginosa KPC-2,2 µg/mL
same,MIC,K. pneumoniae; [7],0.25 µg/mL
same,MIC,K. pneumoniae; isolate 10 K. pneumoniae TEM-4,0.25 µg/mL
same,MIC,K. pneumoniae; isolate 11 K. pneumoniae CTX-M-15,1 µg/mL
same,MIC,K. pneumoniae; isolate 12 K. pneumoniae SHV-12,0.5 µg/mL
same,MIC,K. pneumoniae; isolate 13 K. pneumoniae KPC-3,1 µg/mL
same,MIC,K. pneumoniae; isolate 14 K. pneumoniae KPC-3,0.25 µg/mL
same,MIC,K. pneumoniae; isolate 15 K. pneumoniae KPC-2,0.5 µg/mL
same,MIC,E. faecalis; Enterococcus faecalis,0.06 µg/mL
same,MIC,E. faecalis; isolate 26 E. faecalis Basal MICs,0.06 µg/mL
same,MIC,E. faecalis; isolate 27 E. faecalis Basal MICs,0.06 µg/mL
same,MIC,E. cloacae; [8],0.5 µg/mL
same,MIC,E. cloacae; isolate 2 E. cloacae Derepressed AmpC,1 µg/mL
same,MIC,E. cloacae; isolate 3 E. cloacae Derepressed AmpC,0.5 µg/mL
same,MIC,S. aureus [1]; Staphylococcus aureus,0.12 µg/mL
same,MIC,S. aureus [1]; [3],0.12 µg/mL
same,MIC,S. aureus [1]; [4],0.12 µg/mL
same,MIC,E. coli; [9],0.12 µg/mL
same,MIC,E. coli; isolate 5 E. coli CTX-M-15,0.25 µg/mL
same,MIC,E. coli; isolate 6 E. coli TEM-4,0.5 µg/mL
same,MIC,E. coli; isolate 7 E. coli SHV-12,0.5 µg/mL
same,MIC,E. coli; isolate 8 E. coli SHV-2,0.25 µg/mL
